# Assay results taken from patent publication US9040106B2, “Pharmaceutical composition for preventing or treating diabetic erectile dysfunction comprising C3G or extract of mulberry containing C3G” (CATHOLIC UNIVERSITY INDUSTRY-ACADEMIC COOPERATION FOUNDATION, priority 2011, dated 2015).
# Legend:
# Format in all cases: in vivo, Sprague-Dawley rats
# [1] = Serum glucose of streptozotosin-induced diabetic rats; conditions: DM+C3G group
# Method: (§1) Thirty-six 12-wk-old male Sprague-Dawley rats were treated under a protocol approved by the Institutional Animal Care and Use Committee (CUMC-2010-0137-02) and handled according to NIH guidelines. Rats were divided equally into three groups (n=12 in each): control, diabetes (DM), and diabetes with C3G concentration materials treatment (DM+C3G). All rats in the DM and DM+C3G groups received a single intraperitoneal injection of streptozotosin (50 mg/kg). Blood glucose and body weight were monitored weekly and significant diabetes (serum glucose >250 mg/dl) was confirmed in all rats within 1 wk. The diabetic serum level was maintained throughout the experiment. Four weeks after the induction of diabetes, rats in the DM+C3G group were treated with daily oral C3G (10 mg/kg) dissolved in water for 8 weeks. After the 12 weeks, intracavernosal pressure measurement (ICP) was performed, and after ICP measurement, the skin-denuded middle part of the penile shafts was cut and fixed overnight in 10% formalin, washed, and stored in 70% alcohol at 4° C. until processed for paraffin-embedded tissue sectioning (5 μm). Tissue was stored at −80° C. until processing.
# [2] = system: rat model of diabetic erectile dysfunction; experiment: Intracavernosal pressure measurement on electrical stimulation of the cavernosal nerve; conditions: diabetic rats, daily oral C3G 10 mg/kg for 8 weeks
# Method: as §1
# Rats were anaesthetized with an intraperitoneal injection of 0.2 mL tiletamine (Zoletil®). […] Both mean arterial pressure (MAP) and ICP were continuously monitored during electrical stimulation. […]
# [3] = system: smooth muscle and collagen in corporal tissue; experiment: Masson's trichrome staining of cavernosal tissue
# Method: as §1
# After ICP, the skin denuded middle part of the penile shafts were fixed overnight in 10% formalin, washed, and stored in 70% alcohol at 4° C. until processed for paraffin-embedded tissue sectioning (5 μm). The cavernosal tissue was obtained for the Masson's trichrome staining. After staining, the color distribution of the muscle tissue was approximated by using the Adobe Photoshop CS 8.0. After the entire color distribution of the image was calculated, we selected the muscle tissue distribution, expressed as the color red. There were somewhat standard deviations in our calculation because of color overlays and ambiguity of the color spectrum of the muscle tissues.
# [4] = system: apoptosis in corporal tissue; experiment: TUNEL assay for apoptosis; conditions: diabetic rats, daily oral C3G 10 mg/kg for 8 weeks; DM 39.6±4.6, control 15.3±3.0
# Method: as §1, with “After the 12 weeks, intracavernosal pressure measurement (ICP) was performed, and after ICP measurement, the skin-denuded middle part of the penile shafts was cut and fixed overnight in 10% formalin, washed, and stored in 70% alcohol at 4° C. until processed for paraffin-embedded tissue sectioning (5 μm). Tissue was stored at −80° C. until processing.” left out
# To assess apoptosis in the corpora tissues, the terminal deoxynucleotidyl transferase mediated dUTP nick end labeling (TUNEL) assay was performed using Apop Tag In Situ Apoptosis Detection Kits (Millipore Co., MA, US). […] The number of cells positive for the TUNEL assay was counted and the difference among the groups was assessed. For the count of cells positive for the TUNEL assay, 5 sites were selected randomly from a slide of each group, and the number of cells positive for the TUNEL assay was counted as the average of 5 sites under a light microscope at 400× magnification.
# [5] = system: eNOS; experiment: eNOS protein expression, Western blot of corporal tissue; conditions: C3G treatment group versus DM group, corrected against actin
# Method: as §1, with “After the 12 weeks, intracavernosal pressure measurement (ICP) was performed, and after ICP measurement, the skin-denuded middle part of the penile shafts was cut and fixed overnight in 10% formalin, washed, and stored in 70% alcohol at 4° C. until processed for paraffin-embedded tissue sectioning (5 μm). Tissue was stored at −80° C. until processing.” left out
# (§2) The homogenized buffer solution was placed on ice for 15 min and centrifuged at 4° C. for 13,000 rpm for 15 minutes. […] 30 μg of the quantitative protein was denatured at 95° C. for 5 min and electrophoresis was performed on a 12% discontinuous sodium dodecylsulfate-polyacrylamide gel (SDS-PAGE). […] Chemiluminescence was detected using enhanced chemiluminescence Western blotting detection reagents and densitometric assessment of the bands on the autoradiogram was performed using Bio1D software (version 97; Vilber Lourmat, France). […]
# [6] = system: nNOS; experiment: nNOS protein expression, Western blot of corporal tissue; conditions: C3G treatment group versus DM group, corrected against actin
# Method: as §1, with “After the 12 weeks, intracavernosal pressure measurement (ICP) was performed, and after ICP measurement, the skin-denuded middle part of the penile shafts was cut and fixed overnight in 10% formalin, washed, and stored in 70% alcohol at 4° C. until processed for paraffin-embedded tissue sectioning (5 μm). Tissue was stored at −80° C. until processing.” left out
# as §2
# [7] = system: SOD; experiment: SOD protein expression, Western blot of corporal tissue; conditions: DM group treated with C3G
# Method: as §1, with “After the 12 weeks, intracavernosal pressure measurement (ICP) was performed, and after ICP measurement, the skin-denuded middle part of the penile shafts was cut and fixed overnight in 10% formalin, washed, and stored in 70% alcohol at 4° C. until processed for paraffin-embedded tissue sectioning (5 μm). Tissue was stored at −80° C. until processing.” left out
# The homogenized buffer solution was placed on ice for 15 min and centrifuged at 4° C. for 13,000 rpm for 15 minutes. […] 30 μg of the quantitative protein was denatured at 95° C. for 5 min and electrophoresis was performed on a 12% discontinuous sodium dodecylsulfate-polyacrylamide gel (SDS-PAGE). […] Chemiluminescence was detected using enhanced chemiluminescence Western blotting detection reagents and densitometric assessment of the bands on the autoradiogram was performed using Bio1D software (version 97; Vilber Lourmat, France).
# [8] = system: 8-OHdG in corpora tissues; experiment: Measurement of 8-OHdG (oxidative stress) by ELISA; conditions: diabetic rats, daily oral C3G 10 mg/kg for 8 weeks; DM 0.917±0.247, normal 0.140±0.13
# Method: as §1, with “After the 12 weeks, intracavernosal pressure measurement (ICP) was performed, and after ICP measurement, the skin-denuded middle part of the penile shafts was cut and fixed overnight in 10% formalin, washed, and stored in 70% alcohol at 4° C. until processed for paraffin-embedded tissue sectioning (5 μm). Tissue was stored at −80° C. until processing.” left out
# Oxidative stress in corpora tissues was evaluated by quantifying the levels of 8-hydroxy-2-deoxyguanosine (8-OHdG) as oxidatively modified DNA. […] Levels of 8-OHdG were measured with a DNA oxidation kit (Highly Sensitive 8-OHdG Check ELISA; Japan Institute for the Control of Aging, Fukuroi, Japan) according to the manufacturer's protocol. […] After the final color was developed with the addition of 3,3′,5,5′-tetramethylbenzidine, absorbance was measured at 450 nm. Tissue sample concentration was calculated from a standard curve and was corrected for DNA concentration.
# [9] = C3G treatment group versus DM group
smiles,measurement,setting,value
"OC[C@H]1O[C@@H](Oc2cc3c(O)cc(O)cc3[o+]c2-c2ccc(O)c(O)c2)[C@H](O)[C@@H](O)[C@@H]1O [C3G, Cyanidin-3-O-β-d-glucopyranoside]",Serum glucose,[1]; 4 wk after diabetes induction (start of daily oral C3G 10 mg/kg),462 ± 90 mg/dL
same,Serum glucose,"[1]; 8 wk, daily oral C3G 10 mg/kg from week 4",448 ± 143 mg/dL
same,Serum glucose,"[1]; 12 wk, daily oral C3G 10 mg/kg for 8 weeks",469 ± 163 mg/dL
same,Serum glucose,[1]; Pre-DM induction (before C3G treatment),141 ± 13 mg/dL
same,ICP/MAP ratio,"[2]; DM group 0.32 ± 0.06, control 0.77 ± 0.05",0.55 ± 0.11
same,Peak ICP,"[2]; cavernosal nerve stimulation, DM group 35.4 ± 4.5, control 83.3 ± 1.9",58.0 ± 4.6
same,collagen content of corpora tissues,[3]; [9],collagen content decreased
same,smooth muscle content of corpora tissues,[3]; [9],smooth muscle content increased
same,muscle/collagen ratio,"[3]; diabetic rats, daily oral C3G 10 mg/kg for 8 weeks, DM 10.6±4.6, control 27.3±3.0",21.8±1.7
same,mean apoptotic index ± standard deviation (TUNEL),[4],21.3±1.7
same,"eNOS protein level (western blot, densitogram)",[5],levels increased
same,"nNOS protein level (western blot, densitogram)",[6],levels increased
same,SOD expression (western blot),[7],expressed more in the DM group treated with C3G than in the control group
same,8-OHdG in the corpora tissue by ELISA,[8],0.626±0.423
